Results taken from patent US9562044B2, “2-acylaminothiazole derivative or salt thereof” (ASTELLAS PHARMA INC., priority 2013, dated 2017).
Structures can show the parent of a compound that is named as a salt.

Key:
[1] = molecular target: T1, human c-Mpl receptor (Homo sapiens, UniProt P40238); experiment: Human c-Mpl-introduced Ba/F3 cell proliferative activity; type: cell-based; conditions: concentration showing 30% proliferation; 100% = positive control at 1 μM
T1 construct: expressed in transfected cells
T1 sequence (P40238 26-635): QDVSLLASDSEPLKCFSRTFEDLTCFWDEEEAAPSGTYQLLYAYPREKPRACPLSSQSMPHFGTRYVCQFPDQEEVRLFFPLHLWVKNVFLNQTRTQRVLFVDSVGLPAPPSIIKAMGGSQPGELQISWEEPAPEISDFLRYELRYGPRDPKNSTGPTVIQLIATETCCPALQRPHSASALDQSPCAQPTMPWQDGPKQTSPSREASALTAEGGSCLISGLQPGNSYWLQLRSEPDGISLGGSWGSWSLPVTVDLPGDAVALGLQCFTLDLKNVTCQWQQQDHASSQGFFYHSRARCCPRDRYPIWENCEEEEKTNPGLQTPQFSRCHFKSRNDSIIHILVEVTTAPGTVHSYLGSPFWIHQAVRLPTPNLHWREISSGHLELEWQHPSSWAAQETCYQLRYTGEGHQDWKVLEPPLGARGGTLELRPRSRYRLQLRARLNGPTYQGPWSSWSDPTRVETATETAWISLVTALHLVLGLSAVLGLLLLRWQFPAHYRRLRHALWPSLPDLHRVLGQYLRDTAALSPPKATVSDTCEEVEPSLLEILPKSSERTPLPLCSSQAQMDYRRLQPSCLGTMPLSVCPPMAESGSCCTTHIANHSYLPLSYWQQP
Method: Evaluation of Human c-Mpl-Introduced Ba/F3 Cell Proliferative Activity
The human c-Mpl-introduced Ba/F3 cell proliferative activity was measured by the following method.
As a positive control, 1-(5-{[4-(4-chloro-2-thienyl)-5-{[(2R)-2-methylpyrrolidin-1-yl]methyl}-1,3-thiazol-2-yl]carbamoyl}-3-fluoropyridin-2-yl)piperidine-4-carboxylic acid hydrochloride, which is disclosed as Example 315 in Patent Document 1 and represented by the formula A1, was used. It is known that the compound has a good human c-Mpl-introduced Ba/F3 cell proliferative activity as disclosed in Table 1 of Patent Document 1.
a) Construction of Human c-Mpl Receptor Expression Vector
A human c-mpl receptor gene (GenBank Accession No. M90102.1) was introduced into an expression vector pEF-BOS (Nucleic Acids Res. 18, 5322, 1990).
b) Construction of Cell Stably Expressing Human c-Mpl Receptor
A human c-Mpl receptor expression vector was introduced into a Ba/F3 cell (RIKEN BRC: RCB0805). For the introduction, an electroporation method was used. pEF-BOS-c-mpl (10 μg), pSV2bsr (1 μg, Kaken Pharmaceutical Co., Ltd.) and 1×10^7 Ba/F3 cells were put into a cuvette having a gap width of 0.4 cm, and electroporated under the conditions of 1.5 kV (25 μF) by a Gene Pulser (registered trademark) (BioRad). The cells were cultured in an RPMI-1640 culture medium containing 0.5% WEHI conditioned media (BD Biosciences) and 10% fetal bovine serum for 3 days, and then cultured in an RPMI-1640 culture medium, to which 10 μg/mL blasticidin had been further added, for 30 days to acquire a drug-resistant clone.
c) Measurement of Cell Proliferative Activity
The cells obtained in b) above was cultured in an RPMI-1640 culture medium containing 0.5% WEHI conditioned media, 10% fetal bovine serum, and used. On the day before the experiment, test substances (final concentration of 100 nM to 10 μM) which had been dissolved in a culture medium for assay (RPMI-1640 culture medium containing 10% fetal bovine serum) were added to a 384-well plate (Lot No. 781185, Greiner Bio-One). The cells in the culture medium that had been replaced with a culture medium for assay were dispensed into a 384-well plate, to which the test substances had been added in advance, to 1×10^4 cells/well, and cultured at 37° C. and 5% CO2 overnight. On the experiment day, a solution of a Cell Counting Kit (Dojindo Laboratories) was added to each well of the 384-well plate and cultured at 37° C. and 5% CO2 for about 5 hours. Thereafter, the absorbance (absorption wavelength of 450 nm) of each well was measured using Safire^2™ (TECAN) and used as the index of the number of cells. Further, as a negative control, a well in which the test substance had been not added was prepared.
The absorbance of the well without the test substance was set to 0%, and the absorbance in the case where the positive control was added at a final concentration of 1 μM was set to 100%. From the absorbance in the case where the test substance had been added, a cell proliferation rate (%) was calculated. From the obtained results, the test substance concentration showing 30% proliferation was calculated as an EC30 value by a logistic regression method.

[2] = test system: isolated rat bladder; experiment: Transmural electrical field stimulation-induced contraction of isolated rat bladder; conditions: AUC of contractile response, value before treatment = 100%, SD female rat bladder strip, read-out: Enhancement rate of isolated bladder contraction (% of pre)
Method: Effects on Transmural Electrical Field Stimulation-Induced Contraction of Isolated Rat Bladder
As an effect on the nerve stimulation-dependent bladder contraction in vitro, the effect of the Example compound of the present invention in the transmural electrical field stimulation-induced contraction of isolated rat bladder was measured by the following method. That is, from the bladder isolated from a Spraque-Dawley (SD) female rat (Japan SLC, Inc.), a longitudinal bladder strip having a width of about 2 mm and a length of about 10 mm was prepared. The prepared bladder strip was suspended in an organ bath filled with 10 mL of a Krebs-Henseleit solution. The Krebs-Henseleit solution was bubbled with 95% O2 and 5% CO2, and kept at 37° C. After stabilization at an initial tension of 1 g, contraction was induced twice with 60 mM KCl. The strip was washed with the Krebs-Henseleit solution and stabilized, and then contraction was induced with transmural electrical field stimulation at 20 V (stimulation frequency of 8 Hz, pulse width of 0.3 msec, and stimulation time of 10 seconds) by an electrical stimulation device (Nihon Kohden Corporation). At an interval of 2 minutes, transmural electrical field stimulation was repeated and the voltage was adjusted to make the contractile amplitude about 50% of the contractile response by 20 V. After stabilization of the contraction by the transmural electrical field stimulation, 10 μL of the test substance (final concentrations of 3 μM, 10 μM, and 30 μM), which had been dissolved in 100% dimethylsulfoxide in advance was added. The test substance was cumulatively administered at the next concentration after the contractile response at a lower concentration had been stabilized. The responses were put into a personal computer through PowerLab (registered trademark) (AD Instruments), and analyzed with LabChart (registered trademark) (AD Instruments). The area under the response of each contractile response (area under curve, AUC) was calculated and the value before the treatment with the test substance was set to 100%. Based on this, the enhancement rate of the isolated bladder contraction (% of pre) after the treatment with the test substance was calculated.
The enhancement rates of the isolated bladder contraction due to several 10 μM Example compounds which are the compounds of the formula (I) are shown in Table 2.

Test Example 2 EC30 [1]	Compound	activity at 10 µM [2]
>10 µM	CCCOc1ccc(-c2nc(NC(=O)c3cnc(N4CCC(C(=O)O)CC4)cn3)sc2CN2CCC[C@H]2CC)cc1C(F)(F)F [Example 1, 1-{5-[(5-{[(2R)-2-ethylpyrrolidin-1-yl]methyl}-4-[4-propoxy-3-(trifluoromethyl)phenyl]-1,3-thiazol-2-yl)carbamoyl]pyrazin-2-yl}piperidine-4-carboxylic acid dihydrochloride]	132%
>10 µM	COc1cc(-c2nc(NC(=O)c3cnc(N4CCC(C(=O)O)CC4)cn3)sc2CN2CCCC[C@H]2C)cc(C(F)(F)F)c1 [Example 2, 1-{5-[(4-[3-methoxy-5-(trifluoromethyl)phenyl]-5-{[(2R)-2-methylpiperidin-1-yl]methyl}-1,3-thiazol-2-yl)carbamoyl]pyrazin-2-yl}piperidine-4-carboxylic acid dihydrochloride]	
4.8 µM	Cc1cc(OC(F)(F)F)cc(-c2nc(NC(=O)c3cnc(N4CCC(F)(C(=O)O)CC4)cn3)sc2CN2CCC[C@H]2C)c1 [Example 3, 4-fluoro-1-{5-[(5-{[(2R)-2-methylpyrrolidin-1-yl]methyl}-4-[3-methyl-5-(trifluoromethoxy)phenyl]-1,3-thiazol-2-yl)carbamoyl]pyrazin-2-yl}piperidine-4-carboxylic acid dihydrochloride]	
>10 µM	C[C@@H]1CCCN1Cc1sc(NC(=O)c2cnc(N3CCC(C(=O)O)CC3)cn2)nc1-c1ccc(N(C)C)c(C(F)(F)F)c1 [Example 11]	
>10 µM	CCCC1CCCN1Cc1sc(NC(=O)c2cnc(N3CCC(C(=O)O)CC3)cn2)nc1-c1ccc(OC(C)C)c(C(F)(F)F)c1 (stereo not drawn) [Example 19]	124%
>10 µM	CC(C)Oc1ccc(-c2nc(NC(=O)c3cnc(N4CCC(C(=O)O)CC4)cn3)sc2CN2CCCC(C)(C)C2)cc1C(F)(F)F [Example 20]	
>10 µM	CC[C@@H]1CCCN1Cc1sc(NC(=O)c2cnc(N3CCC(C(=O)O)CC3)cn2)nc1-c1ccc(OCCCOC)c(C(F)(F)F)c1 [Example 21]	
>10 µM	CCCOc1ccc(-c2nc(NC(=O)c3cnc(N4CCC(C(=O)O)CC4)cn3)sc2CN2CCCC(C)(C)C2)cc1C(F)(F)F [Example 27]	
>10 µM	COCCN(Cc1sc(NC(=O)c2cnc(N3CCC(C(=O)O)CC3)cn2)nc1-c1cc(C(F)(F)F)cc(C(F)(F)F)c1)CC(C)C [Example 38]	
>10 µM	CCOC[C@@H]1CCCN1Cc1sc(NC(=O)c2cnc(N3CCC(C(=O)O)CC3)cn2)nc1-c1cc(F)c(OC)c(Cl)c1 [Example 69]	152%
>10 µM	CCOC[C@@H]1CCCN1Cc1sc(NC(=O)c2cnc(N3CCC(C(=O)O)CC3)cn2)nc1-c1cc(F)c(OC)c(C(F)(F)F)c1 [Example 84]	140%
>10 µM	COc1c(Cl)cc(-c2nc(NC(=O)c3cnc(N4CCC(C(=O)O)CC4)cn3)sc2CN2CCC[C@H]2C)cc1Cl [Example 92]	132%
>10 µM	CC[C@@H]1CCCN1Cc1sc(NC(=O)c2cnc(N3CCC(F)(C(=O)O)CC3)cn2)nc1-c1ccc(OC)c(C(F)(F)F)c1 [Example 125]	
8.4 µM	C[C@@H]1CCCN1Cc1sc(NC(=O)c2cnc(N3CCC(F)(C(=O)O)CC3)cn2)nc1-c1cc(F)cc(C(F)(F)F)c1 [Example 128]	
0.77 µM	C[C@@H]1CCCN1Cc1sc(NC(=O)c2cnc(N3CCC(O)(C(=O)O)CC3)cn2)nc1-c1cc(Cl)cs1 [Example 129]	
1.1 µM	C[C@@H]1CCCN1Cc1sc(NC(=O)c2cnc(N3CCC(F)(C(=O)O)CC3)cn2)nc1-c1ccc(F)c(C(F)(F)F)c1 [Example 133]	
0.38 µM	C[C@@H]1CCCCN1Cc1sc(NC(=O)c2cnc(N3CCC(C(=O)O)CC3)cn2)nc1-c1cc(Cl)cs1 [Example 142]	
0.82 µM	CCCN(CCOC)Cc1sc(NC(=O)c2cnc(N3CCC(C(=O)O)CC3)cn2)nc1-c1cc(Cl)cs1 [Example 146]	
>10 µM	C[C@@H]1CCCN1Cc1sc(NC(=O)c2cnc(N3CCC(C(=O)O)CC3)cn2)nc1-c1cc(F)cc(C(F)(F)F)c1 [Example 150]	
0.58 µM	COCCN(Cc1sc(NC(=O)c2cnc(N3CCC(C(=O)O)CC3)cn2)nc1-c1cc(Cl)cs1)CC(C)C [Example 152]	
>10 µM	CCCC1CCCN1Cc1sc(NC(=O)c2cnc(N3CCC(C(=O)O)CC3)cn2)nc1-c1ccc(OC)c(C(F)(F)F)c1 (stereo not drawn) [Example 158]	125%
>10 µM	COc1ccc(-c2nc(NC(=O)c3cnc(N4CCC(C(=O)O)CC4)cn3)sc2CN2CCC[C@H]2C(F)(F)F)cc1C(F)(F)F [Example 179]	120%
	CC[C@@H]1CCCN1Cc1sc(NC(=O)c2cnc(N3CCC(C(=O)O)CC3)cn2)nc1-c1cc(Cl)cs1 [Example 196]	125%
>10 µM	CCOc1ccc(-c2nc(NC(=O)c3cnc(N4CCC(C(=O)O)CC4)cn3)sc2CN2CCC[C@H]2C)cc1C(F)(F)F [Example 200]	
>10 µM	CCOc1ccc(-c2nc(NC(=O)c3cnc(N4CCC(C(=O)O)CC4)cn3)sc2CN2CCC[C@H]2CC)cc1C(F)(F)F [Example 203]	
>10 µM	O=C(Nc1nc(-c2ccc(OCCCF)c(C(F)(F)F)c2)c(CN2CCC[C@H]2C(F)(F)F)s1)c1cnc(N2CCC(C(=O)O)CC2)cn1 [Example 204]	
